Experimental data published in US11912650B2, “Bakuchiol derivatives, pharmaceutically acceptable salts thereof, and preparation method and use of the same” (priority 2020, dated 2024).
In brackets after ≈: the same amount, converted by molar mass. Where a SMILES comes first, the peptide text is derived from it. The star is where a group is joined. X1 = C=C[C@](C)(/C=C/c1ccc(OCC(=O)*)cc1)CCC=C(C)C

Tests used:
[1] = system: Gram-positive bacteria; assay: Antibacterial activity against Gram-positive bacteria (MIC summary); format: cell-based; conditions: 24 h; summary of tables 1 and 2; read-out: minimum inhibitory concentration (MIC) against Gram-positive bacteria
Method: (§1) Antibacterial activity assay. The antibacterial activities of all the compounds were determined according to a broth dilution method specified in Clinical and Laboratory Standards Institute (CLSI) guidelines. Bacterial cells were inoculated on a Mueller-Hinton agar (MHA) plate for overnight culture, and the concentration of the bacterial cells was adjusted to about 1×10^6 colony-forming units (CFU)/mL with phosphate buffered saline (PBS). First, a 1000 μg/mL stock solution (a final concentration of dimethyl sulfoxide (DMSO) was ≤2%) was prepared by dissolving a sample in DMSO/H2O. Then, the stock solution was diluted with Mueller-Hinton Broth (MHB) to an initial concentration of 100 μg/mL, and the sample solution (100 μL) was subjected to two-fold gradient dilution with MHB in a 96-well plate, to obtain 100 μg/mL to 0.78 μg/mL serial dilutions. Then, a bacterial suspension (100 μL) was added to each well of the 96-well plate and mixed with the test sample solution (100 μL). Among them, test systems for compounds 38, 44-45, 58-61 and 63-64 contained 0.05% of Tween 80. Finally, the 96-well plate was incubated at 37° C. for 24 hours. Absorbances at 600 nm at 0 and 24 h were measured. An minimum inhibitory concentration (MIC) value was defined as the lowest concentration where no visible bacterial growth occurred. All experiments were carried out in at least two duplicates, and biological repeatability could be achieved.

[2] = system: rabbit red blood cells; assay: Hemolytic activity assay; format: cell-based
Method: Hemolytic activity assay. Rabbit red blood cells were centrifuged at 2500 rpm for 3 minutes and then washed twice with PBS. Subsequently, a 8% (v/v) cell suspension was prepared by resuspending the rabbit red blood cells with PBS. A sample was first dissolved in DMSO or PBS (a final concentration of DMSO was ≤0.5%), and then diluted with PBS to prepare two-fold gradient dilutions (400 μg/mL to 3.125 μg/mL). The rabbit red blood cell suspension ([…]) was mixed with the two-fold gradient dilutions ([…]) of the sample. Then, the mixture was added to a sterile 96-well plate, incubated at 37° C. for 1 hour, and then centrifuged at 2500 rpm for 5 minutes. Among them, test systems for compounds 38, 44-45, 58-61 and 63-64 contained 0.05% of Tween 80. The supernatant (100 μL) was transferred to a new 96-well plate. Absorbance at 576 nm was measured using a Biotek multifunctional microplate reader. The positive control group was treated with a 2% Triton X-100 solution, and the negative control group was treated with PBS or 0.5% DMSO. The hemolytic activity was calculated by the following equation: % hemolytic activity=[(Abssample−Absnegative control)/(Abspositive control−Absnegative control)]×100. All experiments were carried out in at least two duplicates, and biological repeatability could be achieved.

[3] = system: Gram-negative bacteria; assay: Antibacterial activity against Gram-negative bacteria (MIC summary); format: cell-based; conditions: 24 h; summary of tables 1 and 2
Method: as §1

[4] = system: MRSA NCTC10442; assay: Antibacterial activity assay (broth dilution MIC); format: cell-based, methicillin-resistant Staphylococcus aureus; conditions: Staphylococcus aureus, 37° C., 24 h, compounds 38, 44-45, 58-61, 63-64 with 0.05% Tween 80
Method: as §1

[5] = system: MRSA N315; assay: Antibacterial activity assay (broth dilution MIC); format: cell-based, methicillin-resistant Staphylococcus aureus; conditions: Staphylococcus aureus, 37° C., 24 h, compounds 38, 44-45, 58-61, 63-64 with 0.05% Tween 80
Method: as §1

[6] = system: S. aureus ATCC29213; assay: Antibacterial activity assay (broth dilution MIC); format: cell-based; conditions: Staphylococcus aureus, 37° C., 24 h, compounds 38, 44-45, 58-61, 63-64 with 0.05% Tween 80
Method: as §1

[7] = system: E. coli ATCC25922; assay: Antibacterial activity assay (broth dilution MIC); format: cell-based; conditions: Escherichia coli, 37° C., 24 h, compounds 38, 44-45, 58-61, 63-64 with 0.05% Tween 80
Method: as §1

[8] = system: mouse fibroblasts NCTC clone 929; assay: Toxicity to mammalian cells (CCK-8); format: cell-based; conditions: 100 μg/mL, 24 h
Method: Assay of toxicity to mammalian cells. The cytotoxicities of a compound to be tested to mouse fibroblasts NCTC clone 929, mouse corneal cells CM120 and human hepatocellular carcinoma cells Hep-G2 were evaluated by a CCK-8 method. Cells were inoculated to a 96-well plate according to the cell amount described in a CCK-8 kit (Beyotime, PRC) specification, and cultured at 37° C. with 5% CO2 for 24 h. Then, a specific concentration of the sample to be tested was added to each well. Inoculation was further performed at 37° C. in an incubator for 24 h. Finally, a CCK-8 solution having a final concentration of 10% was added to each well. Incubation was further performed in the incubator for 1.0 h before absorbance at 450 nm (OD450) of the solution was measured by a microplate reader. According to formula (2), the cytotoxicity of the sample to be tested could be obtained:
[formula] • Asample: absorbance of a well with cells, a CCK8 solution and a sample solution to be tested; • Ablank: absorbance of a well with a culture medium and a CCK8 solution but without cells; and • Ano sample: absorbance of a well with cells and a CCK8 solution but without a sample solution to be tested.

[9] = system: S. aureus ATCC29213; assay: Mouse model of bacterial peritonitis (abdominal infection); format: in vivo; conditions: 58 5 mg/kg intravenously every 4 hours; vancomycin 20 mg/kg IP; 5 mice per group
Method: CD-1 mice (6-8 weeks, with an average weight of 25 g) were used as an abdominal infection model. First, the mice were injected with S. aureus ATCC29213 (OD600≈1.0) intraperitoneally, and the mice were randomized into three groups (5 mice per group). After 1 hour of infection, one group was dosed with 58 (5 mg/kg) intravenously for treatment, once every 4 hours; and meanwhile, one group dosed with vancomycin (20 mg/kg, IP) was used as a positive control group, and the other group dosed with a 0.9% sodium chloride injection was used as a blank control group. After two days of treatment, the survival rate of the mice was investigated.

[10] = Pharmacokinetic characteristics in mice; format: in vivo
[11] = system: S. aureus ATCC29213; assay: Mouse model of bacterial keratitis (cornea infection); format: in vivo; conditions: topical four times a day for three days; 0.5% compound 60, 5% vancomycin; P<0.01
Method: Evaluation of in vivo efficacy. The experiment for evaluating in vivo antibacterial efficacy of animals had been approved by the Laboratory Animal Center of South China Agricultural University and was carried out according to the policy of the Ministry of Health of the People's Republic of China. Female C57BL6 mice (6-8 weeks, with an average weight of 20 g) were used as a bacterial keratitis model. In order to establish an immunosuppressive mouse model, cyclophosphamide (100 mg/kg) was injected intraperitoneally to mice three times 5 days before infection. Bacterial cells (S. aureus ATCC 29213) inoculated onto a Mueller Hinton agar (MHA) plate were suspended with PBS, and the concentration of the bacterial cells was adjusted to about 5×10^7 CFU/mL for corneal infection in mice. First, the mice were anesthetized. Then, the cornea of the left eye of the mouse was scratched with a sterile needle, and 15 μL of bacterial suspension was dropped on the injured cornea. One day after infection, the mice were randomized into three groups (5 mice per group). Three compounds (0.5% 60, 5% glucose solution and 5% vancomycin) were applied topically four times a day for consecutive three days, respectively. […] Viable bacteria were counted by an MHA plate counting method. the P value was calculated using SPSS 22.0 software and P≤0.05 was considered as being statistically significant.

[12] = system: S. aureus ATCC29213; assay: Evaluation of development tendency of drug resistance; format: cell-based; conditions: S. aureus ATCC29213, passage at 0.5×MIC
Method: Evaluation of development tendency of drug resistance. Initial MIC values of compound 60, norfloxacin and gatifloxacin against S. aureus ATCC29213 were obtained by the above MIC determination method. Bacterial cells in a 96-well plate with a concentration of 0.5×MIC were taken out to prepare a bacterial suspension (about 1×10^6 CFU/mL) for the next MIC value determination. After incubating the sample at 37° C. for 24 hours, the change in the MIC value of each compound was measured. This experiment was carried out consecutively for 15 days.

C=C[C@@](C)(/C=C/c1ccc(OCCCCN(CCCN(C)C)CCCN(C)C)cc1)CCC=C(C)C [Compound 28]
MIC [1]: 0.39 to 3.12 µg/mL (≈ 0.783 to 6.28 µM) | HC50 (concentration necessary to lyse 50% rabbit red blood cells) ([2]; rabbit red blood cells, 37° C., 1 hour): 112.9 ± 5.0 µg/mL | MIC [3]: 1.56 to 3.12 µg/mL (≈ 3.13 to 6.28 µM) | MIC [4]: 1.56 µg/mL (≈ 3.13 µM) | MIC [5]: 1.56 µg/mL (≈ 3.13 µM) | MIC [6]: 1.56 µg/mL (≈ 3.13 µM) | MIC [7]: 3.12 µg/mL (≈ 6.28 µM)

C=C[C@](C)(/C=C/c1ccc(OCC(=O)N[C@@H](CCCNC(=N)N)C(=O)N[C@@H](CCCNC(=N)N)C(=O)N[C@@H](CCCNC(=N)N)C(N)=O)cc1)CCC=C(C)C [Compound 58]
MIC [1]: 0.39 to 3.12 µg/mL (≈ 0.499 to 4 µM) | cell survival rate, mouse fibroblasts NCTC clone 929 ([8]; CCK-8): 89.3±0.600 | survival rate of mice after two days of treatment [9]: 100% | MIC [4]: 0.39 µg/mL (≈ 0.499 µM) | MIC [5]: 0.39 µg/mL (≈ 0.499 µM) | MIC [6]: 0.39 µg/mL (≈ 0.499 µM) | MIC [7]: 12.5 µg/mL (≈ 16 µM) | pharmacokinetic characteristics in mice [10]: excellent pharmacokinetic characteristics

C=C[C@](C)(/C=C/c1ccc(OCC(=O)N[C@@H](CCCNC(=N)N)C(=O)N[C@@H](CCCNC(=N)N)C(=O)N[C@@H](CCCNC(=N)N)C(=O)N[C@@H](CCCNC(=N)N)C(=O)OC)cc1)CCC=C(C)C [Compound 60] (X1-RRRR-OMe)
MIC [1]: 0.39 to 3.12 µg/mL (≈ 0.409 to 3.28 µM) | HC50 (concentration necessary to lyse 50% rabbit red blood cells) ([2]; rabbit, 1 h): more than 400 μg/mL | cell survival rate, mouse fibroblasts NCTC clone 929 ([8]; mouse): 93.7±0.700 | MIC [4]: 0.78 µg/mL (≈ 0.818 µM) | MIC [5]: 0.39 µg/mL (≈ 0.409 µM) | MIC [6]: 0.39 µg/mL (≈ 0.409 µM) | MIC [7]: 12.5 µg/mL (≈ 13.1 µM) | reduction of the number of bacteria in the infected mouse cornea [11]: 4.48 log | change in MIC value after 15 days of continuous passage [12]: does not change significantly

C=C[C@](C)(/C=C/c1ccc(OCC(=O)N[C@@H](CCCNC(=N)N)C(=O)N[C@@H](CCCNC(=N)N)C(=O)N[C@@H](CCCNC(=N)N)C(=O)N[C@@H](CCCNC(=N)N)C(N)=O)cc1)CCC=C(C)C [Compound 61] (X1-RRRR-NH2)
MIC [1]: 0.39 to 3.12 µg/mL (≈ 0.416 to 3.33 µM) | HC50 (concentration necessary to lyse 50% rabbit red blood cells) ([2]; rabbit, 1 h): more than 400 μg/mL | MIC [4]: 0.78 µg/mL (≈ 0.831 µM) | MIC [5]: 0.39 µg/mL (≈ 0.416 µM) | MIC [6]: 0.78 µg/mL (≈ 0.831 µM) | MIC [7]: 25 µg/mL (≈ 26.6 µM)

C=C[C@](C)(/C=C/c1ccc(OCC(=O)N[C@@H](CCCNC(=N)N)C(=O)N[C@@H](CCCNC(=N)N)C(=O)N[C@@H](CCCNC(=N)N)C(=O)N2CCN(c3ccc(N4C[C@H](CNC(C)=O)OC4=O)cc3F)CC2)cc1)CCC=C(C)C [Compound 63]
MIC [1]: 0.39 to 3.12 µg/mL (≈ 0.354 to 2.84 µM) | MIC [3]: 1.56 to 3.12 µg/mL (≈ 1.42 to 2.84 µM) | MIC [4]: 0.78 µg/mL (≈ 0.708 µM) | MIC [5]: 0.78 µg/mL (≈ 0.708 µM) | MIC [6]: 0.78 µg/mL (≈ 0.708 µM) | MIC [7]: 3.12 µg/mL (≈ 2.84 µM)

C=C[C@](C)(/C=C/c1ccc(OCC(=O)N[C@@H](CCCNC(=N)N)C(=O)N[C@@H](CCCNC(=N)N)C(=O)N[C@@H](CCCNC(=N)N)C(=O)N[C@@H](CCCNC(=N)N)C(=O)N[C@@H](CCCNC(=N)N)C(=O)N[C@@H](CCCNC(=N)N)C(=O)OC)cc1)CCC=C(C)C [Compound 64]
MIC [1]: 0.39 to 3.12 µg/mL (≈ 0.308 to 2.47 µM) | HC50 (concentration necessary to lyse 50% rabbit red blood cells) ([2]; rabbit, 1 h): more than 400 μg/mL | MIC [4]: 1.56 µg/mL (≈ 1.23 µM) | MIC [5]: 1.56 µg/mL (≈ 1.23 µM) | MIC [6]: 1.56 µg/mL (≈ 1.23 µM) | MIC [7]: 25 µg/mL (≈ 19.8 µM)

CCn1cc(C(=O)O)c(=O)c2cc(F)c(N3CCNCC3)cc21 [norfloxacin, reference compound]
change in MIC value after 15 days of continuous passage [12]: 16 fold

CN[C@H](CC(C)C)C(=O)N[C@H]1C(=O)N[C@@H](CC(N)=O)C(=O)N[C@H]2C(=O)N[C@H]3C(=O)N[C@H](C(=O)N[C@H](C(=O)O)c4cc(O)cc(O)c4-c4cc3ccc4O)[C@H](O)c3ccc(c(Cl)c3)Oc3cc2cc(c3O[C@@H]2O[C@H](CO)[C@@H](O)[C@H](O)[C@H]2O[C@H]2C[C@](C)(N)[C@H](O)[C@H](C)O2)Oc2ccc(cc2Cl)[C@H]1O [vancomycin, reference compound]
survival rate of mice after two days of treatment [9]: 100% | reduction of the number of bacteria in the infected mouse cornea [11]: 4.16 log
